Data: patent US8236788B2, “Azolylmethyloxiranes, use thereof for controlling plant pathogenic fungi, and agents containing the same” (BASF SE, priority 2006, dated 2012)

Tests used:
Sphaerotheca fuliginea = assay: Activity against mildew on cucumber leaves, protective application (Sphrfu P1), greenhouse; type: in vivo, Sphaerotheca fuliginea on cucumber seedlings; conditions: 63 ppm active compound, protective spray 20 hours before inoculation, assessed visually after 7 days; untreated plants 90% infected
Experimental: (§1) The active compounds were prepared separately or jointly as a stock solution comprising 25 mg of active compound which was made up to 10 ml using a mixture of acetone and/or DMSO and the emulsifier Wettol EM 31 (wetting agent having emulsifying and dispersing action based on ethoxylated alkylphenols) in a volume ratio of solvent/emulsifier of 99:1. The mixture was then made up to 100 ml with water. This stock solution was diluted with the solvent/emulsifier/water mixture described to give the concentration of active compounds stated below.
At the cotyledon stage, leaves of potted cucumber seedlings were sprayed to run off point with an aqueous suspension having the active compound concentration below. 20 hours after the spray coating had dried on, the plants were inoculated with an aqueous spore suspension of mildew of cucumber (Sphaerotheca fuliginea). The plants were then cultivated in a greenhouse at temperatures between 20 and 24° C. and 60 to 80% relative atmospheric humidity for 7 days. The extent of the mildew development was then determined visually in % infection of the cotyledon area.

Puccinia recondita = assay: Protective activity against brown rust of wheat (Puccrt P1), greenhouse; type: in vivo, Puccinia recondita on wheat seedlings; conditions: 63 ppm active compound, protective spray 1 day before inoculation, assessed visually after further 7 days; untreated plants 90% infected
Experimental: as §1
Leaves of potted wheat seedlings were sprayed to run off point with an aqueous suspension having the active compound concentration stated below. The next day, the treated plants were inoculated with a spore suspension of brown rust of wheat (Puccinia recondita). The plants were then placed in a chamber with high atmospheric humidity (90 to 95%) at 20 to 22° C. for 24 hours. During this time, the spores germinated and the germ tubes penetrated into the leaf tissue. The next day, the test plants were returned to the greenhouse and cultivated at temperatures between 20 and 22° C. and 65 to 70% relative atmospheric humidity for a further 7 days. The extent of the rust fungus development on the leaves was then determined visually.

N#Cc1ccc(C2(Cn3cncn3)OC2c2ccccc2F)c(F)c1 (stereo not drawn) [Compound 69.3, 4-{anti-2-[(1H-1,2,4-triazol-1-yl)methyl]-3-[2-fluorophenyl]oxiran-2-yl}-3-fluorobenzonitrile]
infection of the cotyledon area (Sphaerotheca fuliginea): 1% | infection (extent of rust fungus development on the leaves) (Puccinia recondita): 0%
